Measured values published in PubChem BioAssay AID212 (DTP/NCI, 2004).
Values joined by “and” are separate entries in the source; they are usually repeats but may differ in a detail not shown here. Equal entries are not always repeated. Records with an inconclusive call do not appear.

Test system: BDF1 mice, colon carcinoma 38 sc, T/C %
Assay: NCI In Vivo Anticancer Drug Screen. Data for tumor model Colon Carcinoma 38 (subcutaneous) in B6D2F1 (BDF1) mice
Settings: endpoint: median tumor weight (est.), higher = larger tumour
Procedure, shortened: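 Mice with transplanted tumors are treated with compound or vehicle. Survival or tumor size is then measured in both groups. The ratio of treated to control gives the reported figure.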

[1] = dose: 12.5 mg/kg/injection, schedule: Q07DX002 (ip), vehicle: saline
[2] = dose: 25.0 mg/kg/injection, schedule: Q07DX002 (ip), vehicle: saline
[3] = dose: 100.0 mg/kg/injection, schedule: Q07DX002 (ip), vehicle: saline
[4] = dose: 25.0 mg/kg/injection, schedule: Q07DX002 (ip), vehicle: Klucel (hydroxypropylcellulose) (HPC)
[5] = dose: 100.0 mg/kg/injection, schedule: Q07DX002 (ip), vehicle: Klucel (hydroxypropylcellulose) (HPC)
[6] = dose: 200.0 mg/kg/injection, schedule: Q07DX002 (ip), vehicle: Klucel (hydroxypropylcellulose) (HPC)
[7] = dose: 12.5 mg/kg/injection, schedule: Q07DX002 (ip), vehicle: distilled water + Tween-80
[8] = dose: 25.0 mg/kg/injection, schedule: Q07DX002 (ip), vehicle: distilled water + Tween-80
[9] = dose: 25.0 mg/kg/injection, schedule: Q07DX002 (ip), vehicle: saline with Tween-80
[10] = dose: 400.0 mg/kg/injection, schedule: Q07DX002 (ip), vehicle: saline with Tween-80
[11] = dose: 25.0 mg/kg/injection, schedule: Q07DX003 (ip), vehicle: saline
[12] = dose: 50.0 mg/kg/injection, schedule: Q07DX003 (ip), vehicle: saline
[13] = dose: 100.0 mg/kg/injection, schedule: Q07DX003 (ip), vehicle: saline

NCCOCC(N)C(=O)O (stereo unspecified)
T/C (dose: 125.0 mg/kg/injection, schedule: Q07DX002 (ip), vehicle: saline): 112 % of control
T/C (dose: 250.0 mg/kg/injection, schedule: Q07DX002 (ip), vehicle: saline): 84 % of control
T/C (dose: 500.0 mg/kg/injection, schedule: Q07DX002 (ip), vehicle: saline): 107 % of control
T/C (dose: 1000.0 mg/kg/injection, schedule: Q07DX002 (ip), vehicle: saline): 107 % of control

CN(C)CC(Cl)CCl (stereo unspecified)
T/C [1]: 118 % of control
T/C [2]: 105 % of control
T/C [3]: 115 % of control
T/C (dose: 200.0 mg/kg/injection, schedule: Q07DX002 (ip), vehicle: saline): 118 % of control
T/C (dose: 400.0 mg/kg/injection, schedule: Q07DX002 (ip), vehicle: saline): 88 % of control

C=C(C)/C([O-])=N/[N+](C)(C)CC(O)CCCCCCCCCCCC (stereo unspecified)
T/C (dose: 25.0 mg/kg/injection, schedule: Q01DX001 (ip), vehicle: saline): 105 % of control
T/C (dose: 50.0 mg/kg/injection, schedule: Q01DX001 (ip), vehicle: saline): 100 % of control
T/C (dose: 100.0 mg/kg/injection, schedule: Q01DX001 (ip), vehicle: saline): 109 % of control
T/C (dose: 200.0 mg/kg/injection, schedule: Q01DX001 (ip), vehicle: saline): 108 % of control
T/C (dose: 400.0 mg/kg/injection, schedule: Q01DX001 (ip), vehicle: saline): 156 % of control

C[C@]12CCC(=O)C(O)=C1CC[C@@H]1[C@@H]2CC[C@]2(C)C(=O)CC[C@@H]12
T/C [4]: 82 % of control
T/C (dose: 50.0 mg/kg/injection, schedule: Q07DX002 (ip), vehicle: Klucel (hydroxypropylcellulose) (HPC)): 110 % of control and 101 % of control
T/C [5]: 176 % of control and 186 % of control
T/C [6]: 59 % of control and 84 % of control

ClC(Cl)(Cl)C1=NCc2nnn(Cc3ccccc3)c2N1
T/C [7]: 116 % of control
T/C [8]: 80 % of control
T/C [9]: 97 % of control
T/C (dose: 100.0 mg/kg/injection, schedule: Q07DX002 (ip), vehicle: saline with Tween-80): 102 % of control
T/C (dose: 200.0 mg/kg/injection, schedule: Q07DX002 (ip), vehicle: distilled water + Tween-80): 80 % of control
T/C [10]: 155 % of control

CC[C@@]1(O)C(=O)OCc2c1cc1n(c2=O)Cc2cc3cc(O)ccc3nc2-1
T/C (dose: 0.75 mg/kg/injection, schedule: Q07DX002 (ip), vehicle: saline): 92 % of control
T/C (dose: 1.5 mg/kg/injection, schedule: Q07DX002 (ip), vehicle: saline): 92 % of control
T/C (dose: 3.0 mg/kg/injection, schedule: Q07DX002 (ip), vehicle: saline): 91 % of control
T/C (dose: 6.0 mg/kg/injection, schedule: Q07DX002 (ip), vehicle: saline): 67 % of control
T/C (dose: 12.0 mg/kg/injection, schedule: Q07DX002 (ip), vehicle: saline): 81 % of control

NC1=NCN(C2OC(CO)C(O)C2O)C(=O)N1 (stereo unspecified)
T/C [11]: 57 % of control and 71 % of control
T/C [12]: 60 % of control and 79 % of control
T/C [13]: 54 % of control and 75 % of control
T/C (dose: 400.0 mg/kg/injection, schedule: Q07DX003 (ip), vehicle: saline): 57 % of control and 58 % of control
T/C (dose: 600.0 mg/kg/injection, schedule: Q07DX003 (ip), vehicle: saline): 94 % of control
T/C (dose: 1000.0 mg/kg/injection, schedule: Q07DX003 (ip), vehicle: saline): 79 % of control
T/C (dose: 1200.0 mg/kg/injection, schedule: Q07DX003 (ip), vehicle: saline): 63 % of control
T/C (dose: 1400.0 mg/kg/injection, schedule: Q07DX003 (ip), vehicle: saline): 84 % of control
T/C (dose: 1600.0 mg/kg/injection, schedule: Q07DX003 (ip), vehicle: saline): 47 % of control

CC(O)CCC(=O)c1ccoc1 (stereo unspecified)
T/C (dose: 0.63 mg/kg/injection, schedule: Q07DX002 (ip), vehicle: saline): 150 % of control
T/C (dose: 1.25 mg/kg/injection, schedule: Q03HX006 (ip), vehicle: saline): 42 % of control
T/C (dose: 2.5 mg/kg/injection, schedule: Q03HX006 (ip), vehicle: saline): 64 % of control
T/C (dose: 2.5 mg/kg/injection, schedule: Q07DX002 (ip), vehicle: saline): 166 % of control
T/C (dose: 5.0 mg/kg/injection, schedule: Q03HX006 (ip), vehicle: saline): 58 % of control
T/C (dose: 5.0 mg/kg/injection, schedule: Q07DX002 (ip), vehicle: saline): 150 % of control
T/C (dose: 10.0 mg/kg/injection, schedule: Q07DX002 (ip), vehicle: saline): 185 % of control

NC1(C(=O)O)CCCC1
T/C (dose: 12.5 mg/kg/injection, schedule: Q07DX003 (ip), vehicle: saline): 72 % of control
T/C [11]: 78 % of control
T/C [12]: 92 % of control
T/C [13]: 66 % of control
T/C (dose: 200.0 mg/kg/injection, schedule: Q07DX003 (ip), vehicle: saline): 16 % of control

O=C(O)CC(=O)O.[NH-]C1CCCCC1[NH-].[Pt+2] (stereo unspecified)
T/C (dose: 12.5 mg/kg/injection, schedule: Q07DX002 (ip), vehicle: dextrose): 84 % of control
T/C (dose: 20.0 mg/kg/injection, schedule: Q07DX003 (ip), vehicle: dextrose): 120 % of control
T/C (dose: 25.0 mg/kg/injection, schedule: Q07DX002 (ip), vehicle: dextrose): 55 % of control and 64 % of control
T/C (dose: 40.0 mg/kg/injection, schedule: Q07DX003 (ip), vehicle: dextrose): 48 % of control
T/C (dose: 50.0 mg/kg/injection, schedule: Q07DX002 (ip), vehicle: dextrose): 12 % of control and 35 % of control
T/C (dose: 80.0 mg/kg/injection, schedule: Q07DX003 (ip), vehicle: dextrose): 9 % of control

Cc1cc(N(CC(C)Br)CC(C)Br)ccc1N=Nc1ccccc1C(=O)O (stereo unspecified)
T/C (dose: 1.56 mg/kg/injection, schedule: Q07DX002 (ip), vehicle: saline with Tween-80): 87 % of control and 96 % of control
T/C (dose: 6.25 mg/kg/injection, schedule: Q07DX002 (ip), vehicle: saline with Tween-80): 85 % of control
T/C (dose: 12.5 mg/kg/injection, schedule: Q07DX002 (ip), vehicle: saline with Tween-80): 95 % of control and 102 % of control
T/C [9]: 73 % of control and 86 % of control

COc1ccc2c(c1)CCn1c(C)c(COC(=O)NC(C)C)c(COC(=O)NC(C)C)c1-2
T/C (dose: 6.25 mg/kg/injection, schedule: Q07DX002 (ip), vehicle: distilled water + Tween-80): 76 % of control
T/C [7]: 102 % of control
T/C [8]: 97 % of control
T/C (dose: 50.0 mg/kg/injection, schedule: Q07DX002 (ip), vehicle: distilled water + Tween-80): 65 % of control
T/C (dose: 100.0 mg/kg/injection, schedule: Q07DX002 (ip), vehicle: distilled water + Tween-80): 48 % of control

Ic1ncnc2c1ncn2C1CCCO1 (stereo unspecified)
T/C (dose: 12.5 mg/kg/injection, schedule: Q07DX002 (ip), vehicle: Klucel (hydroxypropylcellulose) (HPC)): 68 % of control and 70 % of control
T/C [4]: 52 % of control and 68 % of control
T/C [5]: 56 % of control and 80 % of control
T/C [6]: 81 % of control
T/C (dose: 400.0 mg/kg/injection, schedule: Q07DX002 (ip), vehicle: Klucel (hydroxypropylcellulose) (HPC)): 55 % of control

O=C1NC(=O)C2C3C=CC(C12)C1C2C(=O)NC(=O)C2C31 (stereo unspecified)
T/C [10]: 29 % of control and 50 % of control

Nc1ncnc2c1ncn2C1OC(CO)C(O)C1O (stereo unspecified)
T/C [1]: 103 % of control
T/C [2]: 115 % of control
T/C [11]: 233 % of control
T/C (dose: 50.0 mg/kg/injection, schedule: Q07DX002 (ip), vehicle: saline): 85 % of control
T/C [12]: 238 % of control
T/C (dose: 75.0 mg/kg/injection, schedule: Q07DX002 (ip), vehicle: saline): 80 % of control
T/C [3]: 110 % of control
T/C (dose: 150.0 mg/kg/injection, schedule: Q07DX002 (ip), vehicle: saline): 97 % of control
T/C (dose: 300.0 mg/kg/injection, schedule: Q07DX002 (ip), vehicle: saline): 105 % of control
T/C (dose: 600.0 mg/kg/injection, schedule: Q07DX002 (ip), vehicle: saline): 116 % of control
